What all share (format): cell-based
Conditions in all cases: 72 hours treatment, cell survival by CellTiter-Glo, 2% fetal bovine serum
(In general: Cellular ATP, detected with luciferase, serves as a proxy for viable cell number.)

For test [1], the system named is MelJuSo cells. Briefly: Cell viability (CellTiter-Glo ATP content) in MelJuSo cells. Put shortly: (§1)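 Cells plated at 5,000 per well in antibiotic-free RPMI with 2% FBS, treated next day in triplicate with increasing compound doses (final DMSO 0.5%) for 72 hours. Viability read as ATP content by CellTiter-Glo luminescence; percent survival relative to vehicle control set as 100%.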

Test [2] concerns LOX cells. The test can be described thus: Cell viability (CellTiter-Glo ATP content) in LOX cells. Put shortly: as §1
The subject of test [3] is A549 cells. Briefly: Cell viability (CellTiter-Glo ATP content) in A549 cells. Put shortly:
as §1

Turning to `COC(=O)CNC(=O)C1(C)C(c2ccsc2)C(c2ccc(F)cc2F)=NN1c1ccc(F)cc1F` (stereo not drawn) [Compound 119, methyl 2-(1,3-bis(2,4-difluorophenyl)-5-methyl-4-(thiophen-3-yl)-4,5-dihydro-1H-pyrazole-5-carboxamido)acetate], the IC50 was below 0.25 µM in test [1] (Homo sapiens, MEL-JUSO); 0.25 to 0.5 µM in test [2] (LOX, 72 h); 0.5 to 1 µM in test [3] (Homo sapiens, A549, 72 h).
In the same order, the values of `COCCNC(=O)C1(C)C(c2ccc(Cl)o2)C(c2ccc(F)cc2F)=NN1c1ccc(F)cc1F` (stereo not drawn) [Compound 120, 4-(5-chlorofuran-2-yl)-1,3-bis(2,4-difluorophenyl)-N-(2-methoxyethyl)-5-methyl-4,5-dihydro-1H-pyrazole-5-carboxamide] are below 0.25 µM, below 0.25 µM and below 0.25 µM.
In the same order, the values of `COC(=O)CNC(=O)C1(C)C(c2ccc(Cl)o2)C(c2ccc(F)cc2F)=NN1c1ccc(F)cc1F` (stereo not drawn) [Compound 121, methyl 2-(4-(5-chlorofuran-2-yl)-1,3-bis(2,4-difluorophenyl)-5-methyl-4,5-dihydro-1H-pyrazole-5-carboxamido)acetate] are below 0.25 µM, below 0.25 µM and below 0.25 µM.
In the same order, the values of `CC1(C(=O)NCCCN2CCOCC2)C(c2cccs2)C(c2ccc(F)cc2)=NN1c1ccc(F)cc1F` (stereo not drawn) [Compound 122, 1-(2,4-difluorophenyl)-3-(4-fluorophenyl)-5-methyl-N-(3-morpholinopropyl)-4-(thiophen-2-yl)-4,5-dihydro-1H-pyrazole-5-carboxamide] are above 2 µM, above 2 µM and above 2 µM.
On to `CNC(=O)CNC(=O)C1(C)C(c2cccs2)C(c2ccc(F)cc2)=NN1c1ccc(F)cc1F` (stereo not drawn) [Compound 123, 1-(2,4-difluorophenyl)-3-(4-fluorophenyl)-5-methyl-N-(2-(methylamino)-2-oxoethyl)-4-(thiophen-2-yl)-4,5-dihydro-1H-pyrazole-5-carboxamide], for which the concentration for half-maximal inhibition (IC50) in test [1] (Homo sapiens, MEL-JUSO) is 1 to 2 µM; in test [2] (LOX, 72 h), above 2 µM; in test [3] (Homo sapiens, A549, 72 h), above 2 µM.
As to `CC1(C(=O)NCC(O)CCO)C(c2cccs2)C(c2ccc(F)cc2)=NN1c1ccc(F)cc1F` (stereo not drawn) [Compound 124, 1-(2,4-difluorophenyl)-N-(2,4-dihydroxybutyl)-3-(4-fluorophenyl)-5-methyl-4-(thiophen-2-yl)-4,5-dihydro-1H-pyrazole-5-carboxamide], the half-inhibitory concentration (IC50) in test [1] (Homo sapiens, MEL-JUSO) is above 2 µM; in test [2] (LOX, 72 h), above 2 µM; in test [3] (Homo sapiens, A549, 72 h) it was above 2 µM.
For the molecule `CC1(C(=O)NCCNC(=O)CCCCC2SC[C@@H]3NC(=O)N[C@H]23)C(c2cccs2)C(c2ccc(F)cc2)=NN1c1ccc(F)cc1F` (stereo partly drawn) [Compound 125, 1-(2,4-difluorophenyl)-3-(4-fluorophenyl)-5-methyl-N-(2-(5-((3aS,6aR)-2-oxohexahydro-1H-thieno[3,4-d]imidazol-4-yl)pentanamido)ethyl)-4-(thiophen-2-yl)-4,5-dihydro-1H-pyrazole-5-carboxamide], the IC50 is above 2 µM in test [1] (Homo sapiens, MEL-JUSO); above 2 µM in test [2] (LOX, 72 h); above 2 µM in test [3] (Homo sapiens, A549, 72 h).
Consider `CC1(C(=O)NCCN2CCOCC2)C(c2cccs2)C(c2ccc(F)cc2)=NN1c1ccc(F)cc1F` (stereo not drawn) [Compound 126, 1-(2,4-difluorophenyl)-3-(4-fluorophenyl)-5-methyl-N-(2-morpholinoethyl)-4-(thiophen-2-yl)-4,5-dihydro-1H-pyrazole-5-carboxamide], for which the half-maximal inhibitory concentration (IC50) in test [1] (Homo sapiens, MEL-JUSO) was above 2 µM; in test [2] (LOX, 72 h), above 2 µM; in test [3] (Homo sapiens, A549, 72 h), above 2 µM.
As for `CN1CCOC(CNC(=O)C2(C)C(c3cccs3)C(c3ccc(F)cc3)=NN2c2ccc(F)cc2F)C1` (stereo not drawn) [Compound 127, 1-(2,4-difluorophenyl)-3-(4-fluorophenyl)-5-methyl-N-((4-methylmorpholin-2-yl)methyl)-4-(thiophen-2-yl)-4,5-dihydro-1H-pyrazole-5-carboxamide], the IC50 in test [1] (Homo sapiens, MEL-JUSO) is below 0.25 µM; in test [2] (LOX, 72 h) it was 0.5 to 1 µM; in test [3] (Homo sapiens, A549, 72 h), 0.5 to 1 µM.
As to `CC1(C(=O)NCC(=O)OCCO)C(c2cccs2)C(c2ccc(F)cc2)=NN1c1ccc(F)cc1F` (stereo not drawn) [Compound 128, 2-hydroxyethyl 2-(1-(2,4-difluorophenyl)-3-(4-fluorophenyl)-5-methyl-4-(thiophen-2-yl)-4,5-dihydro-1H-pyrazole-5-carboxamido)acetate], the IC50 in test [1] (Homo sapiens, MEL-JUSO) is 0.25 to 0.5 µM; in test [2] (LOX, 72 h), 0.5 to 1 µM; in test [3] (Homo sapiens, A549, 72 h), 0.5 to 1 µM.
Turning to `CC(C)(CO)CCCNC(=O)C1(C)C(c2ccoc2)C(c2ccc(F)cc2F)=NN1c1ccc(F)cc1F` (stereo not drawn) [Compound 129, 1,3-bis(2,4-difluorophenyl)-4-(furan-3-yl)-N-(5-hydroxy-4,4-dimethylpentyl)-5-methyl-4,5-dihydro-1H-pyrazole-5-carboxamide], the IC50 in test [1] (Homo sapiens, MEL-JUSO) lay within 0.25 to 0.5 µM; in test [2] (LOX, 72 h), 0.5 to 1 µM; in test [3] (Homo sapiens, A549, 72 h), 0.5 to 1 µM.
As to `COCCNC(=O)C1(C)C(c2ccoc2)C(c2ccc(F)cc2F)=NN1c1ccc(F)cc1F` (stereo not drawn) [Compound 130, 1,3-bis(2,4-difluorophenyl)-4-(furan-3-yl)-N-(2-methoxyethyl)-5-methyl-4,5-dihydro-1H-pyrazole-5-carboxamide], the IC50 in test [1] (Homo sapiens, MEL-JUSO) is 0.5 to 1 µM; in test [2] (LOX, 72 h) it was above 2 µM; in test [3] (Homo sapiens, A549, 72 h) it was above 2 µM.
For `COC(=O)CNC(=O)C1(C)C(c2ccoc2)C(c2ccc(F)cc2F)=NN1c1ccc(F)cc1F` (stereo not drawn) [Compound 131, methyl 2-(1,3-bis(2,4-difluorophenyl)-4-(furan-3-yl)-5-methyl-4,5-dihydro-1H-pyrazole-5-carboxamido)acetate], the IC50 in test [1] (Homo sapiens, MEL-JUSO) was in the range of 0.25 to 0.5 µM; in test [2] (LOX, 72 h) it was 0.5 to 1 µM; in test [3] (Homo sapiens, A549, 72 h), 0.5 to 1 µM.
Regarding `COC(=O)[C@H](C)NC(=O)C1(C)C(c2ccoc2)C(c2ccc(F)cc2F)=NN1c1ccc(F)cc1F` (stereo partly drawn) [Compound 132, (2S)-methyl 2-(1,3-bis(2,4-difluorophenyl)-4-(furan-3-yl)-5-methyl-4,5-dihydro-1H-pyrazole-5-carboxamido)propanoate], the IC50 is above 2 µM in test [1] (Homo sapiens, MEL-JUSO); above 2 µM in test [2] (LOX, 72 h); above 2 µM in test [3] (Homo sapiens, A549, 72 h).
In the case of `CC(C)(CO)CCCNC(=O)C1(C)C(c2ccc(Cl)o2)C(c2ccc(F)cc2F)=NN1c1ccc(F)cc1F` (stereo not drawn) [Compound 133, 4-(5-chlorofuran-2-yl)-1,3-bis(2,4-difluorophenyl)-N-(5-hydroxy-4,4-dimethylpentyl)-5-methyl-4,5-dihydro-1H-pyrazole-5-carboxamide], the IC50 in test [1] (Homo sapiens, MEL-JUSO) was below 0.25 µM; in test [2] (LOX, 72 h) it was below 0.25 µM; in test [3] (Homo sapiens, A549, 72 h), below 0.25 µM.
Turning to `COC(=O)CNC(=O)C1(C)C(c2ccc(Cl)o2)C(c2ccc(F)cc2F)=NN1c1ccc(F)cc1F` (stereo not drawn) [Compound 134, methyl 2-(4-(5-chlorofuran-2-yl)-1,3-bis(2,4-difluorophenyl)-5-methyl-4,5-dihydro-1H-pyrazole-5-carboxamido)acetate], the IC50 in test [1], in test [2] and in test [3] was below 0.25 µM throughout.
As to `CN1CCOC(CNC(=O)C2(C)C(c3ccc(Cl)o3)C(c3ccc(F)cc3F)=NN2c2ccc(F)cc2F)C1` (stereo not drawn) [Compound 135, 4-(5-chlorofuran-2-yl)-1,3-bis(2,4-difluorophenyl)-5-methyl-N-((4-methylmorpholin-2-yl)methyl)-4,5-dihydro-1H-pyrazole-5-carboxamide], the IC50 in test [1] (Homo sapiens, MEL-JUSO) was below 0.25 µM; in test [2] (LOX, 72 h) it was below 0.25 µM; in test [3] (Homo sapiens, A549, 72 h) it was below 0.25 µM.
Consider `CC(C)(CO)CCCNC(=O)C1(C)C(c2ccc(F)cc2F)=NN(c2ccc(F)cc2F)C1c1ccc(Cl)o1` (stereo not drawn) [Compound 136, 5-(5-chlorofuran-2-yl)-1,3-bis(2,4-difluorophenyl)-N-(5-hydroxy-4,4-dimethylpentyl)-4-methyl-4,5-dihydro-1H-pyrazole-4-carboxamide], for which the IC50 in test [1] (Homo sapiens, MEL-JUSO) is 1 to 2 µM; in test [2] (LOX, 72 h), above 2 µM; in test [3] (Homo sapiens, A549, 72 h), above 2 µM.
Turning to `COC(=O)CNC(=O)C1(C)C(c2ccc(F)cc2F)=NN(c2ccc(F)cc2F)C1c1ccc(Cl)o1` (stereo not drawn) [Compound 137, methyl 2-(5-(5-chlorofuran-2-yl)-1,3-bis(2,4-difluorophenyl)-4-methyl-4,5-dihydro-1H-pyrazole-4-carboxamido)acetate], the IC50 in test [1] (Homo sapiens, MEL-JUSO) is 0.5 to 1 µM; in test [2] (LOX, 72 h), above 2 µM; in test [3] (Homo sapiens, A549, 72 h) it was above 2 µM.
As to `CC(C)(C)OC(=O)N1CCOC(CNC(=O)C2(C)C(c3ccc(Cl)o3)C(c3ccc(F)cc3F)=NN2c2ccc(F)cc2F)C1` (stereo not drawn) [Compound 138, tert-butyl 2-((4-(5-chlorofuran-2-yl)-1,3-bis(2,4-difluorophenyl)-5-methyl-4,5-dihydro-1H-pyrazole-5-carboxamido)methyl)morpholine-4-carboxylate], the 50% inhibitory concentration (IC50) is above 2 µM in test [1] (Homo sapiens, MEL-JUSO); above 2 µM in test [2] (LOX, 72 h); above 2 µM in test [3] (Homo sapiens, A549, 72 h).

By IC50 is commonly meant the point on the concentration scale where inhibition reaches its midpoint.

The values are drawn from patent US12227482B2, “Compounds and compositions for the treatment of cancer” (The Regents of the University of California, priority 2016, dated 2025).
